Data taken from patent US7420051B2, “Synthetic process for the manufacture of an ecteinaschidin compound” (Pharma Mar, S.A., priority 2000, dated 2008).

How the values were obtained:
Assay type in all cases: cell-based
[1] = tested on: HT-29 (monolayer culture of a human colon carcinoma); test: Cytotoxic activity screening, HT-29 cells; details: Homo sapiens, HT-29, 72 h, three days of incubation, Crystal Violet, approximate IC50
Experimental: (§1) Cell Cultures. Cells were maintained in logarithmic phase of growth in Eagle's Minimum Essential Medium, with Earle's Balanced Salts, with 2.0 mM L-glutamine, with non-essential amino acids, without sodium bicarbonate (EMEM/neaa); supplemented with 10% Fetal Calf Serum (FCS), 10^−2 M sodium bicarbonate and 0.1 g/l penicillin-G+streptomycin sulfate.
(§2) A simple screening procedure has been carried out to determine and compare the antitumour activity of these compounds, using an adapted form of the method described by Bergeron et al (1984). The tumour cell line employed have been P-388 (suspension culture of a lymphoid neoplasm from DBA/2 mouse), A-549 (monolayer culture of a human lung carcinoma), HT-29 (monolayer culture of a human colon carcinoma) and MEL-28 (monolayer culture of a human melanoma).
(§3) A-549, HT-29 and MEL-28 were seeded into 16 mm wells at 2×10^4 cells per well in 1 ml aliquots of MEM 10FCS containing the indicated concentration of drug. A separate set of cultures without drug was seeded as control growth to ensure that cells remained in exponential phase of growth. All determinations were carried out in duplicate. After three days of incubation at 37° C., 10% CO2 in a 98% humid atmosphere, the wells were stained with 0.1% Crystal Violet. An approximately IC50 was determined by comparing the growth in wells with drug to the growth in wells control.

[2] = tested on: CV-1; test: Cytotoxic activity screening, CV-1 cells; details: Cercopithecidae
[3] = tested on: P-388 (suspension culture of a lymphoid neoplasm from DBA/2 mouse); test: Cytotoxic activity screening, P-388 cells; details: Mus musculus, P388, 72 h, three days of incubation, approximate IC50
Experimental: as §1, §2
P-388 cell were seeded into 16 mm wells at 1×10^4 cells per well in 1 ml aliquots of MEM 5FCS containing the indicated concentration of drug. A separate set of cultures without drug was seeded as control growth to ensure that cells remained in exponential phase of growth. All determinations were carried out in duplicate.

[4] = tested on: A-549 (monolayer culture of a human lung carcinoma); test: Cytotoxic activity screening, A-549 cells; details: Homo sapiens, A549, 72 h, three days of incubation, Crystal Violet, approximate IC50
Experimental: as §1, §2, §3

[5] = tested on: MEL-28 (monolayer culture of a human melanoma); test: Cytotoxic activity screening, MEL-28 cells; details: SK-MEL-28, 72 h, three days of incubation, Crystal Violet, approximate IC50
Experimental: as §1, §2, §3

[6] = tested on: DU-145; test: Cytotoxic activity screening, DU-145 cells; details: Homo sapiens, DU-145, DU-145 cells

Question: For `COC1=C(C)C(=O)C2=C(C1=O)[C@H](CNC(=O)C(C)N)N1C(C2)[C@H]2c3c(cc(C)c(OC)c3O)C[C@@H]([C@@H]1C#N)N2C` (some centres unmarked), which IC50 [1] is on record?
Answer: Its IC50 is 0.018 µM.

Question: And the IC50 [2]?
Answer: The IC50 was 0.023 µM.

Question: And the IC50 [3]?
Answer: Its IC50 is 0.009 µM.

Question: And the IC50 [4]?
Answer: Its IC50 is 0.018 µM.

Question: And the IC50 [5]?
Answer: The IC50 was 0.018 µM.

Question: What does the source list for `C=CCOc1c(C)c2c(c3c1CC1[C@H]4c5c(cc(C)c(OC)c5O)C[C@@H]([C@H](C#N)N1[C@H]3CNC(=O)OCC(Cl)(Cl)Cl)N4C)OCO2` (some centres unmarked)?
Answer: IC50 [6]: 0.014 µM; IC50 [2]: 0.014 µM

Question: How did the IC50 [6] turn out when `C=CCOc1c(C)c2c(c3c1CC1[C@H]4c5c(cc(C)c(OC)c5OCOC)C[C@@H]([C@H](C#N)N1[C@H]3CNC(=O)OCC(Cl)(Cl)Cl)N4C)OCO2` (some centres unmarked) was run?
Answer: Its IC50 is 0.13 µM.

Question: And the IC50 [2]?
Answer: Its IC50 is 0.13 µM.

Question: With `COCOc1c(OC)c(C)cc2c1[C@@H]1C3Cc4c(OC(C)=O)c(C)c5c(c4[C@H](CNC(=O)[C@H](C)NC(=O)OC(C)(C)C)N3[C@@H](C#N)[C@H](C2)N1C)OCO5` (some centres unmarked) as the compound, how does the IC50 [6] read?
Answer: Its IC50 is 0.13 µM.

Question: And the IC50 [1]?
Answer: Its IC50 is 0.13 µM.

Question: And the IC50 [3]?
Answer: Its IC50 is 0.13 µM.

Question: And the IC50 [4]?
Answer: The IC50 was 0.13 µM.

Question: And the IC50 [5]?
Answer: Its IC50 is 0.13 µM.

Question: Which results are given for `COc1c(C)cc2c(c1O)[C@@H]1C3Cc4c(OC(C)=O)c(C)c5c(c4[C@H](CNC(=O)[C@H](C)N)N3[C@@H](C#N)[C@H](C2)N1C)OCO5` (some centres unmarked)?
Answer: IC50 [6]: 0.016 µM; IC50 [1]: 0.008 µM; IC50 [3]: 0.008 µM; IC50 [4]: 0.016 µM; IC50 [5]: 0.008 µM

Question: For `COc1c(C)cc2c(c1O)[C@@H]1C3Cc4c(OC(C)=O)c(C)c5c(c4[C@H](CNC(=O)[C@H](C)NC(=S)Nc4ccccc4)N3[C@@H](C#N)[C@H](C2)N1C)OCO5` (some centres unmarked), which IC50 [6] is on record?
Answer: The IC50 was 0.001 µM.

Question: And the IC50 [1]?
Answer: Its IC50 is 0.001 µM.

Question: What about the IC50 [3] of the same compound?
Answer: Its IC50 is 0.001 µM.

Question: And the IC50 [4]?
Answer: The IC50 was 0.001 µM.

Question: And the IC50 [5]?
Answer: Its IC50 is 0.001 µM.

Question: Which IC50 [6] does the source give for `COc1c(C)cc2c(c1O)[C@@H]1C3Cc4c(OC(C)=O)c(C)c5c(c4[C@H](CN)N3[C@@H](C#N)[C@H](C2)N1C)OCO5` (some centres unmarked) here?
Answer: Its IC50 is 0.01 µM.

Question: What about the IC50 [1] of the same compound?
Answer: The IC50 was 0.01 µM.

Question: What about the IC50 [3] of the same compound?
Answer: Its IC50 is 0.01 µM.

Question: What about the IC50 [4] of the same compound?
Answer: The IC50 was 0.01 µM.

Question: And the IC50 [5]?
Answer: The IC50 was 0.01 µM.

Question: For `COC1=C(C)C(=O)C2=C(C1=O)[C@H](CNC(=O)C(C)N=CSNc1ccccc1)N1C(C2)[C@H]2c3c(cc(C)c(OC)c3O)C[C@@H]([C@@H]1C#N)N2C` (some centres unmarked), which IC50 [1] is on record?
Answer: The IC50 was 0.015 µM.

Question: What about the IC50 [2] of the same compound?
Answer: The IC50 was 0.018 µM.

Question: What about the IC50 [3] of the same compound?
Answer: The IC50 was 0.015 µM.

Question: What about the IC50 [4] of the same compound?
Answer: Its IC50 is 0.015 µM.

Question: And the IC50 [5]?
Answer: Its IC50 is 0.015 µM.

Question: `COCOc1c(OC)c(C)cc2c1[C@@H]1C3CC4=C(C(=O)C(OC)=C(C)C4=O)[C@H](CNC(C)=O)N3[C@@H](C#N)[C@H](C2)N1C` (some centres unmarked) was tested. Which IC50 [2] did it give?
Answer: The IC50 was 0.22 µM.

Question: How did the IC50 [1] turn out when `COCOc1c(OC)c(C)cc2c1[C@@H]1C3CC4=C(C(=O)C(O)=C(C)C4=O)[C@H](CNC(C)=O)N3[C@@H](C#N)[C@H](C2)N1C` (some centres unmarked) was run?
Answer: Its IC50 is over 18.1 µM.

Question: And the IC50 [2]?
Answer: The IC50 was over 18.1 µM.

Question: And the IC50 [3]?
Answer: Its IC50 is over 9 µM.

Question: And the IC50 [4]?
Answer: Its IC50 is over 18.1 µM.

Question: And the IC50 [5]?
Answer: The IC50 was over 18.1 µM.

Question: Which results are given for `COCOc1c(OC)c(C)cc2c1[C@@H]1C3Cc4c(O)c(C)c5c(c4[C@H](CNC(C)=O)N3[C@@H](C#N)[C@H](C2)N1C)OCO5` (some centres unmarked)?
Answer: IC50 [6]: > 1.77 µM; IC50 [1]: > 1.77 µM; IC50 [3]: > 1.77 µM; IC50 [4]: > 1.77 µM; IC50 [5]: > 1.77 µM

Question: `C=CCOc1c(C)c2c(c3c1CC1[C@H]4c5c(cc(C)c(OC)c5OCOC)C[C@@H]([C@H](C#N)N1[C@H]3CNC(C)=O)N4C)OCO2` (some centres unmarked) was tested. Which IC50 [6] did it give?
Answer: The IC50 was over 1.65 µM.

Question: What about the IC50 [1] of the same compound?
Answer: The IC50 was over 1.65 µM.

Question: What about the IC50 [3] of the same compound?
Answer: The IC50 was over 1.65 µM.

Question: And the IC50 [4]?
Answer: The IC50 was over 1.65 µM.

Question: What about the IC50 [5] of the same compound?
Answer: Its IC50 is over 1.65 µM.

Question: What does the source list for `COCOc1c(OC)c(C)cc2c1[C@@H]1C3Cc4c(OC(C)=O)c(C)c5c(c4[C@H](CNC(C)=O)N3[C@@H](C#N)[C@H](C2)N1C)OCO5` (some centres unmarked)?
Answer: IC50 [6]: 0.016 µM; IC50 [1]: 0.016 µM; IC50 [3]: 0.016 µM; IC50 [4]: 0.016 µM; IC50 [5]: 0.016 µM

Question: How did the IC50 [6] turn out when `COc1c(C)cc2c(c1O)[C@@H]1C3Cc4c(OC(C)=O)c(C)c5c(c4[C@H](CNC(C)=O)N3[C@@H](C#N)[C@H](C2)N1C)OCO5` (some centres unmarked) was run?
Answer: The IC50 was 0.001 µM.

Question: And the IC50 [1]?
Answer: The IC50 was 0.001 µM.

Question: And the IC50 [3]?
Answer: The IC50 was 0.001 µM.

Question: And the IC50 [4]?
Answer: The IC50 was 0.001 µM.

Question: And the IC50 [5]?
Answer: Its IC50 is 0.001 µM.

Question: With `C/C=C(\OC(C)=O)C1=C(C2=COCO2)[C@H](CNC(=O)CCCC)N2C(C1)[C@H]1c3c(cc(C)c(OC)c3O)C[C@@H]([C@@H]2C#N)N1C` (some centres unmarked) as the compound, how does the IC50 [6] read?
Answer: The IC50 was 0.007 µM.

Question: What about the IC50 [1] of the same compound?
Answer: The IC50 was 0.007 µM.

Question: What about the IC50 [3] of the same compound?
Answer: Its IC50 is 0.007 µM.

Question: And the IC50 [4]?
Answer: The IC50 was 0.007 µM.

Question: What about the IC50 [5] of the same compound?
Answer: Its IC50 is 0.007 µM.
